Test results taken from patent EP4631498A1, “EYE DROP-TYPE PHARMACEUTICAL COMPOSITION CONTAINING ENVOGLIFLOZIN” (Daewoong Therapeutics Inc., priority 2022, dated 2024).
Values after ≈ are worked out from the molar mass of the structure shown. Like-named read-outs stand apart in the source and are kept apart here.

Test: Saturation solubility of enavogliflozin in aqueous excipient solutions (HPLC)
Type: physicochemical
Conditions: for solubility at 12 h: aqueous excipient solution (excipient in purified water), thermodynamic from solid
Method: According to Table 1 below, enavogliflozin in the amount corresponding to each standard solution and 70 mL of methanol were placed in a volumetric flask and then completely dissolved under ultrasonic agitation. Methanol was added thereto to adjust the total volume to 100 mL. The resulting solution was taken and filtered through a 0.45 µm RC (Regenerated Cellulose) membrane filter. The first 2 mL was discarded and then the filtrate was used as a standard solution.
Each excipient was dissolved in 5 mL of purified water at the maximum concentration recommended by the FDA (Table 2) and then enavogliflozin was added thereto until it was no longer dissolved, followed by stirring for approximately 12 hours. After confirming no dissolution after 12 hours, each sample was centrifuged at 4000 rpm for 30 minutes and the clear supernatant (1 mL) was taken and then diluted with methanol. The resulting solution was filtered through a 0.45 µm RC membrane filter. The first 2 mL was discarded and then the filtrate was used as a test solution.
The peak areas of the standard and test solutions were analyzed under the following HPLC conditions. • Detector: UV spectrophotometer (wavelength: 225 nm) • Column: Capcellpak C18 (4.6 x 250 mm, 5 µm) • Column temperature: about 35°C • Sample temperature: about 25°C • Mobile phase: Buffer solution : acetonitrile = 25 : 75 (v/v) (Buffer solution: prepared by dissolving 100 µl of trifluoroacetic acid in 1000 mL of water) • Flow rate: 1.0 mL/min • Injection volume: 10 µL • Analysis time: about 20 minutes
Polyoxyl 40 stearate (Myrj™ S40) was dissolved in 5 mL of purified water at the concentration of 7.0 w/v% and then enavogliflozin was added thereto until it was no longer dissolved, followed by stirring for approximately 12 hours. Thereafter, the degree of solubilization was evaluated in the same manner as in Example 1.

Q: What does the source list for `OC[C@H]1O[C@@H](c2cc(Cc3ccc(C4CC4)cc3)c(Cl)c3c2CCO3)[C@H](O)[C@@H](O)[C@@H]1O` [enavogliflozin, Enavogliflozin]?
A: Solubility for unit concentration (Aqualon™ CMC 0.50 %w/v): 0.59 mg/%; Solubility for unit concentration (Cavasol™ W8 1.50 %w/v): 0.72 mg/%; Solubility for unit concentration (EtOH 0.50 %w/v): 0.51 mg/%; Solubility for unit concentration (Glycerol 2.25 %w/v): 0.11 mg/%; Solubility for unit concentration (HPMC 606 0.60 %w/v): 0.56 mg/%; Solubility for unit concentration (Kollidon™ K30 15.00 %w/v): 0.24 mg/%; Solubility for unit concentration (Kollidon™ K90 1.50 %w/v): 0.41 mg/%; Solubility for unit concentration (Kolliphor™ EL 5.00 %w/v): 3.37 mg/%; Solubility for unit concentration (Kolliphor™ HS 15 0.25 %w/v): 4.09 mg/%; Solubility for unit concentration (Kolliphor™ RH 40 1.00 %w/v): 3.64 mg/%; Solubility for unit concentration (Kollisolv™ PG 1.50 %w/v): 0.18 mg/%; Solubility for unit concentration (PEG 400 4.00 %w/v): 0.08 mg/%; Solubility for unit concentration (TPGS 0.50 %w/v): 4.63 mg/%; Solubility for unit concentration (Tween™ 20 0.05 %w/v): 7.21 mg/%; Solubility for unit concentration (Tween™ 80 4.00 %w/v): 3.95 mg/%; solubility at 12 h (aqueous with cosolvent or surfactant or cyclodextrin, Aqualon™ CMC 0.50 %w/v in purified water, read-out: Saturation solubility): 300 µg/mL (≈ 671 µM); solubility at 12 h (aqueous with cosolvent or surfactant or cyclodextrin, Cavasol™ W8 1.50 %w/v in purified water, read-out: Saturation solubility): 1090 µg/mL (≈ 2440 µM); solubility at 12 h (aqueous with cosolvent or surfactant or cyclodextrin, HPMC 606 0.60 %w/v in purified water, read-out: Saturation solubility): 330 µg/mL (≈ 738 µM); solubility at 12 h (aqueous with cosolvent or surfactant or cyclodextrin, Kollidon™ K30 15.00 %w/v in purified water, read-out: Saturation solubility): 3600 µg/mL (≈ 8060 µM); solubility at 12 h (aqueous with cosolvent or surfactant or cyclodextrin, Kollidon™ K90 1.50 %w/v in purified water, read-out: Saturation solubility): 620 µg/mL (≈ 1390 µM); solubility at 12 h (aqueous with cosolvent or surfactant or cyclodextrin, Kolliphor™ EL 5.00 %w/v in purified water, read-out: Saturation solubility): 16800 µg/mL (≈ 37700 µM); solubility at 12 h (aqueous with cosolvent or surfactant or cyclodextrin, Kolliphor™ EL 5.0 w/v% in purified water, read-out: Saturation solubility of enavogliflozin): 16800 µg/mL (≈ 37700 µM); solubility at 12 h (aqueous with cosolvent or surfactant or cyclodextrin, Kolliphor™ HS 15 0.25 %w/v in purified water, read-out: Saturation solubility): 1020 µg/mL (≈ 2280 µM); solubility at 12 h (aqueous with cosolvent or surfactant or cyclodextrin, Kolliphor™ RH 40 1.00 %w/v in purified water, read-out: Saturation solubility): 3640 µg/mL (≈ 8140 µM); solubility at 12 h (aqueous with cosolvent or surfactant or cyclodextrin, Polyoxyl 40 stearate 7.0 w/v% in purified water, read-out: Saturation solubility of enavogliflozin): 32000 µg/mL (≈ 71600 µM); solubility at 12 h (aqueous with cosolvent or surfactant or cyclodextrin, TPGS 0.50 %w/v in purified water, read-out: Saturation solubility): 2310 µg/mL (≈ 5170 µM); solubility at 12 h (aqueous with cosolvent or surfactant or cyclodextrin, Tween™ 20 0.05 %w/v in purified water, read-out: Saturation solubility): 360 µg/mL (≈ 806 µM); solubility at 12 h (aqueous with cosolvent or surfactant or cyclodextrin, Tween™ 80 4.00 %w/v in purified water, read-out: Saturation solubility): 15800 µg/mL (≈ 35400 µM); solubility at 12 h (water, EtOH 0.50 %w/v in purified water, read-out: Saturation solubility): 260 µg/mL (≈ 582 µM); solubility at 12 h (water, Glycerol 2.25 %w/v in purified water, read-out: Saturation solubility): 240 µg/mL (≈ 537 µM); solubility at 12 h (water, Kollisolv™ PG 1.50 %w/v in purified water, read-out: Saturation solubility): 270 µg/mL (≈ 604 µM); solubility at 12 h (water, PEG 400 4.00 %w/v in purified water, read-out: Saturation solubility): 330 µg/mL (≈ 738 µM)
